#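 96-well plates; 48 h exposure; 5 concentrations. Endpoints by linear interpolation between flanking doses. Not reached: highest tested concentration assigned. Here, GI50 denotes the concentration required for 50% inhibition of growth.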 The source made the active and inactive calls. No stated cut-off is given here; in the data, active = GI50 up to about 1.1 µM and inactive = higher.
# Columns and labels:
# Test in all cases: DTP human tumour cell line panel, 48 h
# [1] = system: 786-0
# [2] = system: A549
# [3] = system: CAKI-1
# [4] = system: CCRF-CEM
# [5] = system: COLO 205
# [6] = system: DLD-1
# [7] = system: DMS-114
# [8] = system: EKVX
# [9] = system: HCT-116
# [10] = system: HCT-15
# [11] = system: HL-60
# [12] = system: HOP-18
# [13] = system: HOP-62
# [14] = system: HT-29
# [15] = system: IGROV-1
# [16] = system: K562
# [17] = system: KM-20L2
# [18] = system: KM12
# [19] = system: LOX IMVI
# [20] = system: LXFL 529
# [21] = system: M14
# [22] = system: M19-MEL
# [23] = system: MOLT-4
# [24] = system: Malme-3M
# [25] = system: NCI-H226
# [26] = system: NCI-H23
# [27] = system: NCI-H460
# [28] = system: NCI-H522
# [29] = system: OVCAR-3
# [30] = system: OVCAR-4
# [31] = system: OVCAR-5
# [32] = system: OVCAR-8
# [33] = system: RPMI-8226
# [34] = system: RXF 393
# [35] = system: SF-295
# [36] = system: SF-539
# [37] = system: SK-MEL-28
# [38] = system: SK-MEL-2
# [39] = system: SK-MEL-5
# [40] = system: SK-OV-3
# [41] = system: SN12C
# [42] = system: SNB-19
# [43] = system: SNB-75
# [44] = system: SNB-78
# [45] = system: SR
# [46] = system: SW-620
# [47] = system: TK-10
# [48] = system: U-251
# [49] = system: UACC-257
# [50] = system: UACC-62
# [51] = system: UO-31
# [52] = system: XF498
# [53] = system: A498
# [54] = system: ACHN
# [55] = system: DMS-273
# [56] = system: HCC 2998
# [57] = system: HOP-92
# [58] = system: SF-268
smiles,measurement,setting,value
OCCNCCOc1ccc(/C(=C(/Cl)c2ccccc2)c2ccccc2)cc1,GI50,[1],9.68 µM (inactive)
same,GI50,[2],0.34 µM (active)
same,GI50,[3],12.4 µM (inactive)
same,GI50,[4],1.92 µM (inactive)
same,GI50,[5],3.56 µM (inactive)
same,GI50,[6],12.1 µM (inactive)
same,GI50,[7],15.2 µM (inactive)
same,GI50,[8],14.7 µM (inactive)
same,GI50,[9],4.99 µM (inactive)
same,GI50,[10],5.58 µM
same,GI50,[11],0.729 µM (active)
same,GI50,[12],19.3 µM (inactive)
same,GI50,[13],16.7 µM (inactive)
same,GI50,[14],1.11 µM (active)
same,GI50,[15],10.5 µM (inactive)
same,GI50,[16],2.85 µM (inactive)
same,GI50,[17],2.47 µM (inactive)
same,GI50,[18],0.544 µM (active)
same,GI50,[19],3.49 µM (inactive)
same,GI50,[20],6.92 µM (inactive)
same,GI50,[21],1.87 µM (inactive)
same,GI50,[22],10.9 µM (inactive)
same,GI50,[23],1.69 µM (inactive)
same,GI50,[24],0.246 µM (active)
same,GI50,[25],21.6 µM (inactive)
same,GI50,[26],14.7 µM (inactive)
same,GI50,[27],3.4 µM (inactive)
same,GI50,[28],14 µM (inactive)
same,GI50,[29],12.1 µM (inactive)
same,GI50,[30],16.5 µM (inactive)
same,GI50,[31],15.1 µM (inactive)
same,GI50,[32],13.5 µM (inactive)
same,GI50,[33],4.42 µM (inactive)
same,GI50,[34],0.637 µM (active)
same,GI50,[35],15.2 µM (inactive)
same,GI50,[36],13.6 µM (inactive)
same,GI50,[37],1.14 µM (inactive)
same,GI50,[38],13.2 µM (inactive)
same,GI50,[39],6.25 µM (inactive)
same,GI50,[40],3 µM (inactive)
same,GI50,[41],5.3 µM (inactive)
same,GI50,[42],13.9 µM (inactive)
same,GI50,[43],2.37 µM (inactive)
same,GI50,[44],8.51 µM (inactive)
same,GI50,[45],3.34 µM (inactive)
same,GI50,[46],4.44 µM (inactive)
same,GI50,[47],0.408 µM (active)
same,GI50,[48],8.43 µM (inactive)
same,GI50,[49],2.21 µM (inactive)
same,GI50,[50],12.5 µM (inactive)
same,GI50,[51],9.48 µM (inactive)
same,GI50,[52],2.9 µM (inactive)
C=CCn1c(=O)n(CC=C)c(=O)n(CC=C)c1=O,GI50,[1],> 100 µM (inactive)
same,GI50,[53],> 100 µM (inactive)
same,GI50,[2],> 100 µM (inactive)
same,GI50,[54],> 100 µM (inactive)
same,GI50,[4],> 100 µM (inactive)
same,GI50,[5],> 100 µM (inactive)
same,GI50,[6],> 100 µM (inactive)
same,GI50,[7],> 100 µM (inactive)
same,GI50,[55],> 100 µM (inactive)
same,GI50,[8],> 100 µM (inactive)
same,GI50,[56],> 100 µM (inactive)
same,GI50,[9],> 100 µM (inactive)
same,GI50,[10],> 100 µM
same,GI50,[11],> 100 µM (inactive)
same,GI50,[12],> 100 µM (inactive)
same,GI50,[13],> 100 µM (inactive)
same,GI50,[57],> 100 µM (inactive)
same,GI50,[15],> 100 µM (inactive)
same,GI50,[16],> 100 µM (inactive)
same,GI50,[17],> 100 µM (inactive)
same,GI50,[18],> 100 µM (inactive)
same,GI50,[19],> 100 µM (inactive)
same,GI50,[20],> 100 µM (inactive)
same,GI50,[21],> 100 µM (inactive)
same,GI50,[22],> 100 µM (inactive)
same,GI50,[23],> 100 µM (inactive)
same,GI50,[24],> 100 µM (inactive)
same,GI50,[26],> 100 µM (inactive)
same,GI50,[27],> 100 µM (inactive)
same,GI50,[28],> 100 µM (inactive)
same,GI50,[29],> 100 µM (inactive)
same,GI50,[31],> 100 µM (inactive)
same,GI50,[32],> 100 µM (inactive)
same,GI50,[33],> 100 µM (inactive)
same,GI50,[34],> 100 µM (inactive)
same,GI50,[58],> 100 µM (inactive)
same,GI50,[35],> 100 µM (inactive)
same,GI50,[36],> 100 µM (inactive)
same,GI50,[37],> 100 µM (inactive)
same,GI50,[38],> 100 µM (inactive)
same,GI50,[39],> 100 µM (inactive)
same,GI50,[40],> 100 µM (inactive)
same,GI50,[41],> 100 µM (inactive)
same,GI50,[42],> 100 µM (inactive)
same,GI50,[44],> 100 µM (inactive)
same,GI50,[46],> 100 µM (inactive)
same,GI50,[47],> 100 µM (inactive)
same,GI50,[48],> 100 µM (inactive)
same,GI50,[49],> 100 µM (inactive)
same,GI50,[50],> 100 µM (inactive)
same,GI50,[51],> 100 µM (inactive)
Cc1c(/C=N/N(C)C)oc2c1cc(O)c1ncccc12,GI50,[1],6.28 µM (inactive)
same,GI50,[53],25.8 µM (inactive)
same,GI50,[2],5.01 µM (inactive)
same,GI50,[54],7.89 µM (inactive)
same,GI50,[3],4.03 µM (inactive)
same,GI50,[4],1.27 µM (inactive)
same,GI50,[5],35.8 µM (inactive)
same,GI50,[6],3.67 µM (inactive)
same,GI50,[7],2.87 µM (inactive)
same,GI50,[55],5.31 µM (inactive)
same,GI50,[8],2.11 µM (inactive)
same,GI50,[56],14 µM (inactive)
same,GI50,[9],2.99 µM (inactive)
same,GI50,[10],2.31 µM
same,GI50,[11],2.13 µM (inactive)
same,GI50,[12],1.77 µM (inactive)
same,GI50,[13],7.35 µM (inactive)
same,GI50,[57],10.7 µM (inactive)
same,GI50,[14],41.2 µM (inactive)
same,GI50,[15],14.3 µM (inactive)
same,GI50,[16],3.86 µM (inactive)
same,GI50,[17],34.5 µM (inactive)
same,GI50,[18],18.2 µM (inactive)
same,GI50,[19],4.5 µM (inactive)
same,GI50,[20],7.98 µM (inactive)
same,GI50,[21],3.25 µM (inactive)
same,GI50,[23],2.59 µM (inactive)
same,GI50,[24],11.2 µM (inactive)
same,GI50,[25],13.2 µM (inactive)
same,GI50,[26],3.61 µM (inactive)
same,GI50,[27],4.5 µM (inactive)
same,GI50,[28],2.38 µM (inactive)
same,GI50,[29],2.66 µM (inactive)
same,GI50,[30],4.75 µM (inactive)
same,GI50,[31],7.24 µM (inactive)
same,GI50,[32],4.07 µM (inactive)
same,GI50,[33],5.05 µM (inactive)
same,GI50,[34],5.97 µM (inactive)
same,GI50,[58],4.01 µM (inactive)
same,GI50,[35],9.91 µM (inactive)
same,GI50,[37],22.5 µM (inactive)
same,GI50,[38],12.6 µM (inactive)
same,GI50,[39],6.9 µM (inactive)
same,GI50,[40],6.87 µM (inactive)
same,GI50,[41],3.96 µM (inactive)
same,GI50,[42],14.1 µM (inactive)
same,GI50,[43],6.92 µM (inactive)
same,GI50,[45],2.77 µM (inactive)
same,GI50,[46],4.61 µM (inactive)
same,GI50,[47],28.8 µM (inactive)
same,GI50,[48],13.1 µM (inactive)
same,GI50,[49],5.36 µM (inactive)
same,GI50,[50],13.8 µM (inactive)
same,GI50,[51],2.08 µM (inactive)
same,GI50,[52],8.38 µM (inactive)
